Experimental findings from patent US12553037B2, “Engineered class 2, type V repressor systems” (Scribe Therapeutics Inc., priority 2021, dated 2026) are described below.

The experiment deals with B2M gene. As to the kind of experiment: B2M reactivation by 5-azadC in cells silenced by ELXR5-ZIM3 or CasX 491 (Example 12). The following applies: 0 μM to 20 μM 5-azadC; B2M-targeting gRNA.

Each structure is given as a SMILES string.

`Nc1ncn([C@H]2C[C@H](O)[C@@H](CO)O2)c(=O)n1` [5-azadC, 5-aza-2′-deoxycytidine, reference compound]: the “reactivation of the B2M gene upon 5-azadC treatment” value was “reactivation of the B2M gene”.
